According to patent US7846651B2, “Epitope/peptide recognized by HLA-A2402-restricted Ep-CAM-specific CTL and use of the same” (Aichi Prefecture, priority 2004, dated 2010):

Experiments:
T2-A24 cells = assay: 51Cr release assay of C27 against peptide-pulsed T2-A24; assay type: cell-based; settings: effector to target ratio of 1
PC9 = assay: Cold target inhibition assay; assay type: cell-based; settings: peptide 1×10^−5 M pulsed T2-A24 cells
Procedure: Cold target inhibition assay was carried out according to the method of Arai et al. (Blood, 97:2903-2907, 2001). […] After several washings, the resultants were incubated with 2×10^4 effector cells for 1 hour to yield a ratio of peptide-pulsed T2-A24 cells to target cells of 40:1, 20:1, 10:1, and 5:1. 2×10^3 51Cr-labeled PC9 cell lines were added to each well. The cytotoxicity was determined as described in the item 7) regarding CTL assays.

HLA-A2402 = HLA-A2402 (Homo sapiens, UniProt P04439, D101N/D140Y/D185E/E176V/E190D/F33S/G103R/G107R/I119L/I121M/I306V/K335N/L105A/L180Q/L300P/N151K/N90K/Q86E/Q94H/R106L/R138H/R89G/T104I/T345S/V100E/W191G/Y123F); assay: MHC stabilization assay using T2-A24 cells; assay type: binding; settings: ranking among the seven peptides
[1] = system: CD8 positive T-cells of HLA-A2402 positive healthy donors; assay: ELISPOT assay of IFN-γ; assay type: cell-based, human; settings: T-cell lines stimulated by peptide-pulsed dendritic cells, incubated with peptide-pulsed T2-A24 cells
Procedure: Subsequently, self-derived dendritic cells were pulsed at room temperature for 2 to 4 hours with each of the Ep-CAM synthesis peptides with a concentration of 10 μM in an AIM-V culture medium (product of Gibco) containing 5×10^−5 M β-mercaptoethanol, followed by irradiation (33Gy).
The dendritic cells (1×10^5 cells) were then cocultivated in a culture tube with CD8 positive T lymphocytes (1×10^6 lymphocytes) in a RPMI1640 culture medium containing 10% human blood serum, 25 ng/mL recombinant human IL-7 (product of R&D systems company), and 5 ng/mL recombinant human IL-12 (product of R&D systems company).
After seven days of cultivation, the cells were stimulated by adding 1×10^5 peptide-pulsed self-derived dendritic cells prepared as above. After a further seven days of cultivation, the cells were stimulated 3 times by the same procedure. After each restimulation, human recombinant IL-2 (product of Takeda Pharmaceutical Company, Ltd.) was added to give a final concentration of 20 units/ml. Actively proliferating cells were divided into 2 or 3 tubes as necessary, and cultured in a fresh culture medium containing 20 units/ml of IL-2. […]
The plate was incubated at 37° C. for 20 hours in a 5% CO2 incubator, and thoroughly washed with PBS containing 0.05% Tween 20. […] The number of diffused large spots was counted under the microscope.

Question: What does the source list for `CC[C@H](C)[C@H](NC(=O)[C@H](Cc1ccccc1)NC(=O)[C@H](CCCCN)NC(=O)[C@@H]1CCCN1C(=O)[C@H](CC(=O)O)NC(=O)[C@H](CC(C)C)NC(=O)[C@H](CCC(N)=O)NC(=O)[C@H](Cc1ccc(O)cc1)NC(=O)[C@@H](N)CCCNC(=N)N)C(=O)O` [Ep173]?
Answer: peptide concentration at which C27 demonstrated cytotoxicity against pulsed T2-A24 cells (T2-A24 cells): 100 pM; inhibition of C27-mediated cytotoxicity against PC9 by peptide-pulsed T2-A24 cold target cells (PC9): specifically inhibited

Question: How did the “affinity for the HLA-A2402” value (HLA-A2402) turn out when “EMGEMHREL (… PROTEIN EPITOPE PEPTIDE …) [Ep304, Ep-CAM peptide, amino acid positions 304-312]” was run?
Answer: lowest affinity

Question: “RYLRDQQLL (SYTHETIC PROTEIN EPITOPE PEPTIDE …) [ENV584, human immunodeficiency virus-1 (HIV-1) envelope peptide, residues 584-592, control, reference compound]” was tested. Which “production of IFN-γ spots” value [1] did it give?
Answer: not observed

Question: “YYVDEKAPEF (… PROTEIN EPITOPE PEPTIDE …) [Ep250, Ep-CAM peptide, amino acid positions 250-259]” was tested. Which “production of IFN-γ spots” value [1] did it give?
Answer: specifically produced IFN-γ spots
